Experimental data published in patent publication US20180299431A1, “Explant Assay to Determine the Potential for Compositions to Promote or to Inhibit Neural Tube Defects” (Board of Supervisors of Louisiana State University and …, priority 2015, published 2018).

Assays:
diabetic NOD pregnancies = experiment: NOD diabetic pregnancies and folinic acid supplementation; format: in vivo, mouse
Experimental: All animal experiments were performed with prior approval from the Pennington Biomedical Research Center IACUC, and were conducted in accordance with the “Guide for the care and use of laboratory animals” of the United States National Institutes of Health. Animals were housed with a 12-hour light/dark cycle, with access to food and water ad libitum. Mice of the Non-Obese Diabetic strain (NOD/ShiLtJ, The Jackson Laboratory, Bar Harbor, Me.; sometimes referred to as “NOD” mice), as well as male mice of strain FVB were kept on Purina™ 5001 diet (calories provided by: Protein, 28.5%; Fat, 13.5%; Carbohydrate, 58%. LabDiet, Purina Mills Inc., Gray Summit, Mo.). Females of strain FVB were kept on Purina 5015 diet (calories provided by: Protein, 19.8%; Fat, 25.3%; Carbohydrate, 54.8%). Blood glucose levels were monitored weekly in NOD mice. Once blood glucose exceeded 250 mg/dl, females were considered diabetic, and were then used for mating and production of embryos. Diabetic as well as normoglycemic NOD female mice were mated to normoglycemic NOD male mice; once NOD males became hyperglycemic, they were retired from the experiment and were no longer used. Supplementation with folinic acid (12.5 mg/kg body weight, once per week by intraperitoneal injection) was initiated at the age of 10 weeks in 56 NOD females. […]

[1] = system: STZ-induced diabetic mouse pregnancies; conditions: cited from earlier work

Structure (SMILES) | NTD incidence (in words) (diabetic NOD pregnancies; NOD strain, folinic acid supplementation) | incidence of neural tube defects in embryos (diabetic NOD pregnancies; diabetic NOD pregnancies, gestation day 10.5, 12.5 mg/kg once per week i.p., 17 NTDs in 81 embryos, unsupplemented 40.2%, Fisher's Exact Test p=0.006) [%] | effect on NTDs (in words) [1]
Nc1nc(=O)c2c([nH]1)NCC(CNc1ccc(C(=O)N[C@@H](CCC(=O)O)C(=O)O)cc1)N2C=O (mixture of isomers) [folinic acid] | reduced | 21 | –
Nc1nc2ncc(CNc3ccc(C(=O)N[C@@H](CCC(=O)O)C(=O)O)cc3)nc2c(=O)[nH]1 [folic acid] | – | – | beneficial effects
